Source: article PMC11969438 (Inorganic Chemistry Frontiers, 2025)
“Also recorded” adds a separate entry of the source.

Columns and labels:
[1] = test system: THP1-Dual, HCT116, HCT116/OxR and CT-26 cells; test: MTT-based cell viability assay, 72 h, statements over all investigated cell lines; set-up: species or system human and murine
Experimental: Cell models were seeded (2–2.5 × 10^3 cells per well) in 96-well plates. After 24 h of recovery, the compounds were applied at the concentrations indicated in triplicate. Cell viability was determined after 72 h of continuous drug incubation using an MTT-based cell viability assay (EZ4U, Biomedica, Vienna, Austria) according to the manufacturer's recommendations. Absorbance was measured at 450 nm (vs. 620 nm as reference) using a multimode microplate reader (Tecan Spark, Zurich, Switzerland). Half-maximal inhibitory concentrations (IC50 values) were derived via interpolation from dose–response curves, modeled with the four-parameter logistic (4PL) nonlinear regression model in GraphPad Prism (La Jolla, CA, USA) from at least three independent experiments.

[2] = Reduction kinetics with 10 eq. L-ascorbic acid in phosphate buffer, UHPLC; type: physicochemical; details: 10 eq. AA, PB pH 7.4, 20 °C, after 24 h
Experimental: (§1) PB (150 mM, pH 7.4) containing 1 mM platinum compound was incubated at 20 °C, with and without the addition of 10 eq. of AA. The reaction was monitored using a Thermo Scientific Dionex UltiMate 3000 UHPLC system with a Waters Acquity UPLC BEH C18 1.7 μm 3.0 × 50 mm column. Milli-Q water containing 0.1% formic acid and acetonitrile containing 0.1% formic acid were used as eluents. A gradient of 5–95% over 5 min was used with a flow of 0.6 mL min^−1. To evaluate the current state of the reaction, the peak area of the parental complex was used.

[3] = Hematological analysis 24 h after the second dose; details: 24 h after second dose; for anemia: two i.v. doses equimolar to 9 mg kg^−1 oxaliplatin
Experimental: Mice were kept in groups of four per cage with sterilized paper-based environmental enrichment and food and water ad libitum, under pathogen-free conditions and a controlled environment with a 12 h light–dark cycle. Syngeneic models of colorectal carcinoma were generated via subcutaneous injection of CT-26 cells (0.5 × 10^6 cells in 50 μL of serum-free RPMI-1640 medium) into the right flank of 8–12 weeks old BALB/c mice. […] All animals were euthanized 24 h after the second dose. […] To determine the anticancer efficacy of the investigated compounds, treatment started 4 d after tumor implantation, when all tumors were measurable (>25 mm^3) using a twice-weekly treatment scheme for two weeks. Tumor size was determined daily via manual caliper measurement. The tumor volume was calculated as tumor volume = (length × diameter × diameter)/2. The overall condition, shape, and activity of the animals were assessed daily. Peripheral blood was collected from the submandibular vein in K3E K3EDTA tubes (Greiner Bio-One; Kremsmünster, AUT) on ice and was analyzed for hematological parameters (red blood cells (RBCs), hemoglobin (HGB), hematocrit (HCT), red cell distribution width (RDW), mean corpuscular volume (MCV), white blood cells (WBCs), lymphocytes (LYM), monocytes (MO), granulocytes (GRA), and platelets (PLT) using a Vet ABC hematology analyzer (scil Animal Care GmbH, Viernheim, Germany). EDTA-blood was centrifuged (900g, 10 min) twice and the supernatant (EDTA-plasma) was stored at −20 °C for subsequent cytokine/chemokine analysis using a Luminex detection platform. All animal experiments were performed with humane endpoints based on Federation of European Laboratory Animal Science Associations guidelines and according to the regulations of the Ethics Committee for the Care and Use of Laboratory Animals at the Medical University Vienna (proposal number BMBWF 2023–0.122.324). Animals were euthanized upon reaching a tumor volume of >1500 mm^3, a loss in body weight (>20%), tumor ulceration or other indications of deteriorated health. Animals were euthanized via cervical dislocation.

THP1-Dual cells [4] = test: Quantitative RT-PCR of target genes downstream of STING; type: cell-based, human; details: 24 h, prodrugs 100 μM, MSA-2 25 μM
Experimental: The THP1-Dual cell model was seeded at 1 × 10^6 cells per well in six-well plates. After 24 h of recovery, the compounds were applied at the concentrations indicated. After 24 h of drug exposure, total RNA was isolated using TRIzol reagent (Thermo Fisher Scientific, MA, USA), as described previously.[12] RNA was reverse transcribed into cDNA using RevertAid Reverse Transcriptase (Thermo Fisher Scientific). Real-time PCR was performed using the GoTaq® RT-qPCR system (Promega) with a CFX96 Touch Real-Time PCR Detection System (Bio-Rad Laboratories). Relative mRNA levels were quantified using the 2^−ddCT method.[54] RPL41 was used as a housekeeping gene. Human-specific primers were purchased from Eurofins Genomics (Ebersberg, Germany) with the following sequences: RPL41: fwd (5′-[…]-3′), rev (5′-[…]-3′); IFNB1: fwd (5′-CTTGGATTCCTACAAAGAAGCAGC-3′), rev (5′-[…]-3′); ISG15: fwd (5′-[…]-3′), rev (5′-[…]-3′); IFIT1: fwd (5′-[…]-3′), rev (5′-[…]-3′); CXCL10: fwd (5′-[…]-3′), rev (5′-[…]-3′); and CCL5: fwd (5′-[…]-3′), rev (5′-[…]-3′).

THP1-Dual cells [5] = test: Western blot analysis of STING downstream pathway, DNA damage and cell death markers; type: cell-based, human; details: 24 h
Experimental: The THP1-Dual cell model was seeded at 1 × 10^6 cells per well in six-well plates. After 24 h of recovery, the compounds were applied at the concentrations indicated. After 24 h of drug exposure, whole-cell protein isolation was performed as described previously.[14] Sodium dodecyl sulfate polyacrylamide gel electrophoresis was performed. Proteins were transferred onto polyvinylidene difluoride membranes (Thermo Scientific, Waltham, MA, USA). Antibodies targeting STING (##13 647; 1 : 1000), phospho-STING (#19 781; 1 : 500), TBK1 (#3504; 1 : 500), IRF-3 (#4302; 1 : 500), phospho-p65 (#3033; 1 : 500), ISG15 (#2743; 1 : 1000), caspase-3 (#9665; 1 : 1000), cleaved caspase-3 (#9661; 1 : 1000), PARP (#9532; 1 : 1000), and cleaved PARP (#9541; 1 : 1000) were purchased from Cell Signaling Technology (Danvers, MA, USA). The p65 antibody (#sc-372; 1 : 1000) was purchased from Santa Cruz and the phospho-H2A.X antibody (#05-636-I; 1 : 500) was obtained from Merck (Darmstadt, Germany). The anti-β-actin (#5441; 1 : 2000) antibody was obtained from Sigma-Aldrich. The anti-mouse IgG (#A0168; 1 : 10 000) horseradish peroxidase (HRP)-coupled secondary antibody was purchased from Sigma-Aldrich, and the anti-rabbit IgG (#7074; 1 : 5000) HRP-linked secondary antibody was obtained from Cell Signaling Technology.

[6] = Hydrolytic stability in phosphate buffer, UHPLC; type: physicochemical; details: 1 mM, 150 mM PB pH 7.4, 20 °C, over 24 h
Experimental: as §1

CT-26 tumors = test: Anticancer efficacy in vivo, syngeneic colorectal carcinoma; set-up: species or system BALB/c mice
Experimental: Tumor size was determined daily via manual caliper measurement. […] Animals were euthanized via cervical dislocation.

SMILES | IC50 ratio prodrug vs free oxaliplatin, maximum over cell models [1] [fold] | complex remaining intact in presence of AA [2] | anemia [3] | mRNA induction of immune response genes (IFN-β, ISG15, IFIT1, CXCL10, CCL5) (THP1-Dual cells [4]) | DNA damage (p-H2A.X upregulation, cleavage of caspase-3 and PARP) (THP1-Dual cells [5]) | induction of ISG15 (THP1-Dual cells [5]) | stability in PB [6] | tumor volume (CT-26 tumors; peritumoral (p.t.) application, identical doses as i.v.) | red blood cell counts (RBCs), hematocrit (HCT), red cell distribution width (RDW) [3] | tumor growth (CT-26 tumors; i.v. twice a week for two weeks, equimolar to 9 mg kg^−1 oxaliplatin)
COCCOCCOCCOCCNC(=O)[O][Pt-2]12([O]C(=O)CCC(=O)c3cc4cc(OC)c(OC)cc4s3)([NH2+][C@@H]3CCCC[C@H]3[NH2+]1)[O]C(=O)C(=O)[O]2 [Ox-MSA-PEG-Ca, (OC-6-34)-[(1R,2R)-1,2-cyclohexanediamino]-oxalato-[4-(5,6-dimethoxybenzo[b]thiophen-2-yl)-4-oxobutylcarboxylato]-[3,6,9,12-tetraoxatridecan-1-amino]platinum(IV)] | ≤ 40 | very well comparable to Ox-MSA-PEG-Es | not | distinctly raised transcript levels to a comparable extent as free MSA-2 | induced DNA damage | triggered | very well comparable to Ox-MSA-PEG-Es | robust and significant decrease in the tumor volume; also recorded: distinct anticancer activity | – | –
COCCOCCOCCOCCC(=O)[O][Pt-2]12([O]C(=O)CCC(=O)c3cc4cc(OC)c(OC)cc4s3)([NH2+][C@@H]3CCCC[C@H]3[NH2+]1)[O]C(=O)C(=O)[O]2 [Ox-MSA-PEG-Es, (OC-6-44)-[(1R,2R)-1,2-cyclohexanediamino]-oxalato-[4-(5,6-dimethoxybenzo[b]thiophen-2-yl)-4-oxobutylcarboxylato]-[2,5,8,11-tetraoxatetradecanoato]platinum(IV)] | ≤ 40 | ~80% | – | low propensity | induced DNA damage | – | stable | – | – | –
O=C1[O][Pt]2([NH][C@@H]3CCCC[C@H]3[NH]2)[O]C1=O [oxaliplatin, reference compound] | – | – | anemia | – | – | – | – | – | clearly lowered | clearly reduced tumor growth
